Test results as given in paper PMC9794608 (Frontiers in Veterinary Science, 2022).

System: laboratory beagle dogs
Assay: Repeat dose tolerability: clinical observations, hematology, serum chemistry, coagulation, urinalysis
Type: in vivo
Description: Laboratory Beagle dogs (Charles River Labs, Mattawan, MI) served as surrogates in testing compounds proposed for application in canine clinical cancer care. The animals were at least six months old and weighed 6.4–8.8 kg at the initiation of study. They had routine veterinary care and had not been used in any previous studies. The study was conducted in AAALAC-accredited animal facilities [Charles River Laboratories, Inc., Mattawan, MI; NIH Office of Laboratory Animal Welfare Assurance approval (https://olaw.nih.gov/assured/app/index.html)], under review, monitoring, and approval of the facility's Institutional Animal Care and Use Committee according to U.S. Public Health Service national guidelines and regulations for the care and use of laboratory animals. The study was not designed to incorporate Good Laboratory Practices (GLP) regulatory criteria. Animals on study were monitored daily or more frequently and body weights were recorded, while periodic specimens were obtained for laboratory analyses. Clinical pathology analyses were included for hematology, serum chemistry, coagulation, urinalysis, and chemical bioanalysis was accomplished for pharmacokinetics (PK) (Table 1, repeat dose study) (Charles River Laboratories, Mattawan, MI).
Six male and six female beagle dogs were enrolled in a parallel, three-arm, fixed, repeat oral-dose study. […] All dogs were dosed on study day 1 to obtain single dose PK samples, and then dosed serially days 4–20. Dogs were fasted overnight prior to dosing and fed ad libitum 2 h (hrs) following dose administration.
On days 10 and 15, a 2-h post-dose sample was collected. […] Treatment schedule and clinical pathology specimen sampling intervals are outlined in Table 1. […]
Sampling for hematology, serum chemistry, coagulation and urinalysis was conducted to facilitate monitoring treatment effects over various time points, and values obtained were compared to pre-treatment measurements for each subject (Table 1).

Compound: CC(C)n1nc(-c2ccc3oc(N)nc3c2)c2c(N)ncnc21 [Sapanisertib]
- Serum ALT, times pre-study (Day 20, one female dog (23502), considered unlikely to be inhibitor related): 2.10 x
- Dogs with minimal to marked increases in urine protein concentration (Day 25, greater than pre-study values, 4 dogs per group): three of four
- Urine protein concentration, highest value (up to) (Day 25, semi-quantitatively by urine dipstick): ≥ 1,000 mg/dL
- Urine glucose (up to) (Day 25, semi-quantitatively by urine dipstick, individuals of both sexes): up to 250 mg/dL
- Urine pH (up to) (Day 25, Group 2 males and both sexes in Group 3): ≥ 9.0 pH
- Activated partial thromboplastin time (APTT) prolonged, times pretreatment (up to) (Days 6, 11, 15, 22, and/or 25, individual dogs, within normal reference range): up to 1.21 x
- Serum phosphorus concentrations, times pre-study (as low as) (Days 7 and 20, both sexes in all groups): ≥ 0.74 x
- Cholesterol concentrations, times pre-study (up to) (Days 7 and 20, both sexes in Group 2 and males in Group 3): up to 1.50 x
- Group mean APTT versus dogs given trametinib alone (at 11 days and thereafter, p < 0.05): significantly different
- Prothrombin time (PT) assays (compared to pretreatment samples): No analogous effect
- Blood neutrophils, times individual pre-study values (one male (23002) and one female (23501), Group 2, days 20 and 25, up to): up to 1.95 x
- Individual animal fibrinogen concentration, times pretreatment (up to) (various time points, most pronounced in Group 3): up to 2.61 x
